Measured values as given in patent publication US20110091945A1, “METHODS OF INCREASING BIOMASS PRODUCTIVITY, LIPID INDUCTION, AND CONTROLLING METABOLITES IN ALGAE FOR PRODUCTION OF BIOFUELS USING BIOCHEMICAL STIMULANTS” (priority 2009, published 2011).
Values joined by “and” are separate entries in the source; they are usually repeats but may differ in a detail not shown here. Identical values can stand only once. Like-named read-outs stand apart in the source and are kept apart here.

Columns and labels:
[1] = test system: Chlorogloea fritschii; conditions: cited from earlier work
[2] = test system: Chlorella sorokiniana; test: Malathion twelve day growth study: chlorophyll a and chl a/b ratio; type: cell-based, Chlorella sorokiniana (UTEX 2805)
Experimental: (§1) • Analysis of growth parameters: Chlorophyll a was estimated following the method of Porra et al., (1989) Biochem. Biophys. Acta 975, 384-394. Biomass estimations were performed by filtering the cultures through pre-dried and weighed Whatman GF/C glass fiber filters (4.7 cm diameter; 1.2 μm pore size). After washing with 0.65 M ammonium formate, filters were then dried at 60° C. overnight and cooled in a desiccant pouch before re-weighing. Specific growth rates, divisions per day, and generation times were estimated based upon biomass data for days 6 to 9 and days 9 to 12 using the following equations:
(§2) • Test strain: Chlorella sorokiniana (UTEX 2805) was obtained from UTEX Culture Collections and maintained in BG11 medium (Stanier et al., (1971) Bacteria Rev. 35: 171-205, incorporated herein in its entirety). The pH of culture medium was adjusted to 7.5±0.2 before inoculation and the alga was maintained in a temperature controlled growth chamber at 25±1° C. and 100±10 μmol m^−2 s^−1 light intensity with 12/12 h L/D cycle provided by cool white fluorescent (6500 K) T-8 bulbs. • Pesticide: A twelve day time-scale growth study was conducted to evaluate the effect of pesticide toxicity on algal growth and metabolism. The pesticide malathion (Spectracide, 50% v/v) was used and added to fresh BG11 medium to obtain final concentrations of 70, 140, 280 and 560 mg of malathion L^−1 for the treatments. […] After sterilization, C. sorokiniana was added as inoculum to obtain an initial biomass concentration of 0.075 g L^−1 in all the treatments in triplicates. The cultures were incubated in the growth chamber as explained above. For each sampling period, three randomly chosen flasks of each treatment were removed and then refrigerated at 4° C. until further analysis.

[3] = test system: Nostoc calcicola; conditions: cited from earlier work
[4] = test system: Stigeoclonium, Tribonema, and Vaucheria; conditions: 1 μg L^−1; cited from earlier work
[5] = test system: Chlorella pyrenoidosa; conditions: 100 mg of malathion L^−1; cited from earlier work
[6] = test system: algae; conditions: applied alone at half solubility in water (75 mg L^−1); cited from earlier work
[7] = test system: Anabaena; conditions: cited from earlier work; for inhibition: 500 mg malathion L^−1
[8] = test system: Chlorella sorokiniana; test: Malathion growth study: neutral lipid content; type: cell-based, Chlorella sorokiniana (UTEX 2805); conditions: for increase in lipid production over the control: day 6
Experimental: • Biomass Composition: Neutral lipids were estimated using an Ankom XT10 automated extractor (Chinnasamy et al., (2010) Bioresource Technol. 101: 3097-3105). Lipid content was measured gravimetrically using hexane as solvent. The same filters used for the biomass measurements (from 25 mL of culture) were used for the lipid estimation as they provided the initial weight of biomass (W1). The filters were then placed into Ankom XT4 extraction bags, sealed with the impulse sealer and then autoclaved at 121° C. for 15 min. After drying, the extraction bags were placed in a resealable plastic bag with desiccant material while each individual bag was removed and carefully weighed (W2). Extraction bags were then placed into the Ankom extractor and extraction was performed for 2 h at 105° C. with hexane as solvent. Bags were then transferred to a forced-air oven and dried at 60° C. overnight, then cooled in a dessicator and weighed (W3). The following equation was used to calculate the lipid content of algal samples:
as §2

[9] = test system: Chlorella sorokiniana; test: Malathion twelve day growth study: biomass and growth rates; type: cell-based, Chlorella sorokiniana (UTEX 2805)
Experimental: as §1
Specific growth rate (μ, d^−1)=ln(N2/N1)/(t2−t1)
Divisions per day (Div.day^−1)=μ/ln2
Generation time (d)=1/Div.day^−1
Where N1 and N2=biomass at time 1 (t1) and time 2 (t2), respectively.
as §2

[10] = T1, 70 mg malathion L^−1, day 6 to 9
[11] = T1, 70 mg malathion L^−1, day 9 to 12
[12] = T2, 140 mg malathion L^−1, day 6 to 9
[13] = T2, 140 mg malathion L^−1, day 9 to 12

SMILES: CCOC(=O)CC(SP(=S)(OC)OC)C(=O)OCC (centres unmarked) [malathion, 2-(dimethoxyphosphinothioylthio)butanedioic acid diethyl ester]
- concentration that permanently suppressed the growth [1]: 200 mg/L
- ratio of chl a to chl b ([2]; 70 mg malathion L^−1, day 0): approximately 0.85
- inhibition in chl a ([2]; 70 mg malathion L^−1, day 3): 45%
- inhibition in chl a ([2]; 70 mg malathion L^−1, day 6): 49%
- inhibition in chl a ([2]; 70 mg malathion L^−1, day 9): 51%
- inhibition in chl a ([2]; 70 mg malathion L^−1, day 12): 26%
- ratio of chl a to chl b ([2]; 70 mg malathion L^−1, day 12): approximately 0.90
- ratio of chl a to chl b ([2]; 140 mg malathion L^−1, day 0): approximately 0.85
- ratio of chl a to chl b ([2]; 140 mg malathion L^−1, day 12): approximately 0.90
- decrease of chl a/b ratio ([2]; 280 mg malathion L^−1): approximately 100%
- concentration above which growth was reduced [3]: above 500 mg L^−1
- inhibition of chlorophyll production [4]: 100%
- effect on growth, in words [5]: very little effect on the growth
- toxicity to algae, in words [6]: toxic to algae
- resistance to malathion, in words ([7]; 500 mg L^−1): highly resistant
- inhibition ([7]; day 5): 64%
- inhibition ([7]; day 30): 15%
- increase in lipid production over the control ([8]; 70 mg malathion L^−1): 70%
- increase in lipid over control ([8]; 70 mg malathion L^−1, day 9): 42%
- increase in lipid production over the control ([8]; 140 mg malathion L^−1): 110%
- increase in lipid over control ([8]; 140 mg malathion L^−1, day 9): 119%
- increase in lipid content over control ([8]; 140 mg malathion L^−1, day 12): 25%
- increase in lipid production over the control ([8]; 280 mg malathion L^−1): 325%
- increase in lipid over control ([8]; 280 mg malathion L^−1, day 9): 212%
- increase in lipid content of the cells with respect to day 3 ([8]; T1, 70 mg malathion L^−1, day 9, control 97%): 193%
- increase in lipid content of the cells with respect to day 3 ([8]; T1, 70 mg malathion L^−1, day 12, control 287%): 406%
- increase in lipid content of the cells with respect to day 3 ([8]; T2, 140 mg malathion L^−1, day 9, control 97%): 150%
- increase in lipid content of the cells with respect to day 3 ([8]; T2, 140 mg malathion L^−1, day 12, control 287%): 574%
- increase in lipid production ([8]; concentrations ranging from 70-280 mg L^−1 in the growth medium): 70-325%
- malathion concentration the alga can withstand / tolerated [9]: up to 140 mg L^−1
- time within which the alga could metabolize the pesticide and overcome the stress ([9]; 70 mg malathion L^−1): ≤ 6 days
- inhibition in biomass ([9]; 70 mg malathion L^−1, day 3): 25%
- inhibition in biomass ([9]; 70 mg malathion L^−1, day 6): 37%
- inhibition in biomass ([9]; 70 mg malathion L^−1, day 9): 35%
- inhibition in biomass ([9]; 70 mg malathion L^−1, day 12): 18%
- time within which the alga could metabolize the pesticide and overcome the stress ([9]; 140 mg malathion L^−1): ≤ 9 days
- inhibition of biomass ([9]; 140 mg malathion L^−1, day 3): 35%
- inhibition of biomass ([9]; 140 mg malathion L^−1, day 6): 60%
- inhibition of biomass ([9]; 140 mg malathion L^−1, day 9): 68%
- inhibition of biomass ([9]; 140 mg malathion L^−1, day 12): 49%
- effect on growth of the alga, in words ([9]; 270 mg malathion L^−1): lethal
- effect on growth of the alga, in words ([9]; 280 mg malathion L^−1 (T3)): lethal
- inhibition of biomass ([9]; 280 mg malathion L^−1, day 3): 48%
- inhibition of biomass ([9]; 280 mg malathion L^−1, day 6): 78%
- inhibition of biomass ([9]; 280 mg malathion L^−1, day 9): 89%
- inhibition of biomass ([9]; 280 mg malathion L^−1, day 12): 100%
- effect on growth of the alga, in words ([9]; 540 mg malathion L^−1): lethal
- effect on growth of the alga, in words ([9]; 560 mg malathion L^−1 (T4)): lethal effects
- Divisions per day [9, 10]: 0.23
- Generation time [9, 10]: 4.4 days
- Increase in biomass production [9, 10]: 1.61 times
- Specific growth rate (μ) [9, 10]: 0.16 day⁻¹
- Δ Biomass [9, 10]: 0.103 g/L
- Divisions per day [9, 11]: 0.27
- Generation time [9, 11]: 3.7 days
- Increase in biomass production [9, 11]: 1.8 times and 1.76 times
- Specific growth rate (μ) [9, 11]: 0.19 day⁻¹
- Δ Biomass [9, 11]: 0.206 g/L
- Divisions per day [9, 12]: 0.12
- Generation time [9, 12]: 8.7 days
- Increase in biomass production [9, 12]: 1.27 times
- Specific growth rate (μ) [9, 12]: 0.08 day⁻¹
- Δ Biomass [9, 12]: 0.029 g/L
- Divisions per day [9, 13]: 0.38
- Generation time [9, 13]: 2.6 days
- Increase in biomass production [9, 13]: 2.2 times and 2.20 times
- Specific growth rate (μ) [9, 13]: 0.26 day⁻¹
- Δ Biomass [9, 13]: 0.163 g/L
